Data: patent US4370489A, “Herbicidal compounds” (Hoechst Aktiengesellschaft, priority 1976, dated 1983)

How the values were obtained:
[1] = system: Alopecurus; assay: Post-emergence greenhouse pot trial, annual blackgrass (Example I, Table I); type: in vivo, annual blackgrass (Alopecurus); settings: for Effect on weed grasses (evaluation scheme number), Alopecurus: greenhouse pots, 4 weeks
Procedure: (§1) Seeds of weed grasses were sown in pots filled with loamy soil and placed in the greenhouse for germination and emergence. As soon as the plants had developed 3 or 4 leaves, they were sprayed with wettable powder formulations, suspended in water, of compounds according to the invention.
(§2) The results and also the results of all following examples were evaluated 4 weeks later according to the following scheme:
(§3) 4 is still considered an acceptable herbicidal effect in weeds and a satisfactory preserving effect in crop plants (cf. Bolle, Nachrichtenblatt des Deutschen Pflanzenschutzdienstes 16, 1964, pages 92-94).
(§4) Effect on weed grasses in a post-emergence trial in pots
(§5) in the greenhouse (Evaluation scheme)

[2] = system: Digitaria; assay: Pre-emergence greenhouse pot trial, Digitaria (Example V, Table V); type: in vivo
Procedure: as §2
(§6) In a greenhouse the compounds to be tested were sprayed on the surface of the soil directly after sowing. […] Dicotyledonous crop plants (the same as used in Example I) were not damaged by the applied amounts.
(§7) Effect on weed grasses in a pre-emergence process (evalua-
(§8) tion scheme) experiment in pots in the greenhouse.

[3] = system: Echinochloa; assay: Post-emergence greenhouse pot trial, Echinochloa (Example I, Table I); type: in vivo; settings: greenhouse pots, 4 weeks
Procedure: as §1, §2, §3, §4, §5

[4] = system: Avena fatua; assay: Post emergence treatment in two stages, boxes on a site without roof, wild oat (Table III); type: in vivo; settings: 0.9 kg/hectare
Procedure: as §2
(§9) Effect on wild oat and sugar beet
(§10) Post emergence treatment in two stages of development
(§11) boxes 20 × 24 × 22 cm in size on a site without roof

[5] = system: Lolium; assay: Post-emergence greenhouse pot trial, Lolium (Example I, Table I); type: in vivo; settings: greenhouse pots, 4 weeks
Procedure: as §1, §2, §3, §4, §5

[6] = system: Avena ludoviciana; assay: Post-emergence treatment, pots on a site without roof, Avena ludoviciana (Example IV, Table IV); type: in vivo; settings: post-emergence, emulsion concentrate
Procedure: as §2
(§12) In summer a further experiment was carried through under similar conditions to compare the effect of compound 1a with that of comparative compound A. Both compounds were used in the form of an emulsion concentrate (Table IV).
(§13) Post-emergence treatment (evaluation scheme); experiment
(§14) in pots on a site without roof

[7] = system: Echinochloa; assay: Pre-emergence greenhouse pot trial, Echinochloa (Example V, Table V); type: in vivo
Procedure: as §2, §6, §7, §8

[8] = system: Lolium; assay: Pre-emergence greenhouse pot trial, Lolium (Example V, Table V); type: in vivo
Procedure: as §2, §6, §7, §8

[9] = system: spring barley; assay: Post-emergence treatment, pots on a site without roof, spring barley (Example IV, Table IV); type: in vivo; settings: emulsion concentrate; note: ranges in brackets are in %
Procedure: as §2, §12, §13, §14

[10] = system: wild oat; assay: Field trial in wild oat, post-emergence treatment (Example VI, Table VI); type: in vivo; settings: for efficiency in % (counting of panicles) / evaluation 5 weeks after treatment: post-emergence
Procedure: In a field trial compound 1a of the invention was sprayed in the form of a 36% wettable powder formulation onto wild oat (single system, natural growth) after the plants had developed 3 or 4 leaves.
Three lots each were treated with different concentrations of the active compound and the comparative compound, the amount of spray liquor applied being 600 liters per hectare. Besides the usual visual evaluation at the end of the trial, the number of panicles per square meter was counted. In the untreated lots 400 to 500 panicles were counted per square meter, i.e. the field was heavily infected.
The relations are still more distinct when the amount of active compound required for a 90% effect is determined by the probit method (graphical evaluation) mentioned in Example II.

[11] = system: Setaria; assay: Pre-emergence greenhouse pot trial, Setaria (Example V, Table V); type: in vivo
Procedure: as §2, §6, §7, §8

[12] = system: sugar beet; assay: Post emergence treatment in two stages, boxes on a site without roof, sugar beet (Table III); type: in vivo; settings: 0.9 kg/hectare
Procedure: as §2, §9, §10, §11

[13] = system: spring wheat; assay: Post-emergence trial in two stages, pots on a site without roof, spring wheat (Example II, Table II); type: in vivo
Procedure: as §2
(§15) The amounts of active compound required for a 90% effect, determined by the probit method (cf. Bliss, Annals of Applied Biology, 22 1935), show very distincly the difference between the compound of the invention and the comparative compound. […] None of the compounds did any harm to the wheat.
(§16) Post-emergence treatment in two different stages of development
(§17) Experiments in pots on a site without roof
(§18) stage 1: 3 to 4 leaves with beginning growth of side
(§19) stage 2: main tillering to terminated tillering.

[14] = system: Avena fatua; assay: Post-emergence treatment, pots on a site without roof, Avena fatua (Example IV, Table IV); type: in vivo; settings: post-emergence, emulsion concentrate
Procedure: as §2, §12, §13, §14

[15] = system: Avena fatua; assay: Post-emergence trial in two stages, pots on a site without roof, wild oat (Example II, Table II); type: in vivo; settings: for 90% effective dose: probit method; for Effect on wild oat (evaluation), Avena fatua: post-emergence
Procedure: as §2, §15, §16, §17, §18, §19

[16] = system: Setaria; assay: Post-emergence greenhouse pot trial, Setaria (Example I, Table I); type: in vivo; settings: greenhouse pots, 4 weeks
Procedure: as §1, §2, §3, §4, §5

[17] = system: spring wheat; assay: Post-emergence treatment, pots on a site without roof, spring wheat (Example IV, Table IV); type: in vivo; settings: emulsion concentrate; note: ranges in brackets are in %
Procedure: as §2, §12, §13, §14

[18] = system: Alopecurus myos.; assay: Post-emergence treatment, pots on a site without roof, blackgrass (Example IV, Table IV); type: in vivo, annual black-grass (Alopecurus); settings: for Effect (evaluation scheme), Alopecurus myos.: post-emergence, emulsion concentrate
Procedure: as §2, §12, §13, §14

[19] = system: Digitaria; assay: Post-emergence greenhouse pot trial, Digitaria (Example I, Table I); type: in vivo; settings: greenhouse pots, 4 weeks
Procedure: as §1, §2, §3, §4, §5

COC(=O)C(C)Oc1ccc(Oc2ccc(Cl)cc2Cl)cc1 (stereo not drawn) [A, methyl-2-[4-(2',4'-dichlorophenoxy)-phenoxy]-propionate, reference compound]
1 (100): Effect on weed grasses (evaluation scheme number), Setaria ([16]; 2.5 kg/hectare) | Effect on weed grasses (evaluation scheme number), Digitaria ([19]; 2.5 kg/hectare)
7 (65.0 to <75.0): Effect on weed grasses (evaluation scheme number), Alopecurus ([1]; 0.62 kg/hectare) | Effect on weed grasses (evaluation scheme), Digitaria ([2]; 0.62 kg/hectare) | Effect on weed grasses (evaluation scheme number), Lolium ([5]; 0.15 kg/hectare) | Effect (evaluation scheme), Avena ludoviciana ([6]; 0.225 kg/hectare) | Effect (evaluation scheme), Avena ludoviciana ([6]; 0.45 kg/hectare) | evaluation 5 weeks after treatment ([10]; 0.72 kg/hectare) | Effect on wild oat (evaluation), Avena fatua ([15]; stage 2, 0.225 kg/hectare)
5 (85.0 to <90.0): Effect on wild oat, Avena fatua, number ([4]; start of tillering) | Effect on weed grasses (evaluation scheme number), Lolium ([5]; 0.62 kg/hectare) | Effect on weed grasses (evaluation scheme), Lolium ([8]; 1.25 kg/hectare) | Effect on wild oat (evaluation), Avena fatua ([15]; stage 1, 0.45 kg/hectare) | Effect on wild oat (evaluation), Avena fatua ([15]; stage 2, 0.45 kg/hectare) | Effect on wild oat (evaluation), Avena fatua ([15]; stage 2, 0.9 kg/hectare)
insufficient: effect on wild oat ([10]; 0.90 kg per hectare, in words)
79%: degree of damage % (evaluation by weight), Avena fatua ([4]; start of tillering)
2.7 kg/hectare: amount of active compound required for a 90% effect ([10]; without wetting agent, probit method (graphical evaluation))
3 (95.0 to <.97.5): Effect on weed grasses (evaluation scheme number), Echinochloa ([3]; 0.62 kg/hectare) | Effect on weed grasses (evaluation scheme number), Lolium ([5]; 2.5 kg/hectare) | Effect on weed grasses (evaluation scheme), Echinochloa ([7]; 1.25 kg/hectare) | Effect on wild oat (evaluation), Avena fatua ([15]; stage 1, 0.9 kg/hectare) | Effect on weed grasses (evaluation scheme number), Digitaria ([19]; 0.62 kg/hectare)
99%: degree of damage % (evaluation by weight), Avena fatua ([4]; 3-leaf stage)
2 (0 to 2.5): sugar beet number ([12]; 2-leaf stage) | sugar beet number ([12]; 4-leaf stage)
9 (0 to <32.5): Effect on wild oat (evaluation), Avena fatua ([15]; stage 1, 0.112 kg/hectare)
0.82 kg per hectare: 90% effective dose ([15]; stage 2 (main tillering to terminated tillering))
0.55 kg per hectare: 90% effective dose ([15]; stage 1 (3 to 4 leaves with beginning growth of side))
1 (0): evaluation scheme, spring barley ([9]; 0.225 kg/hectare) | evaluation scheme, spring barley ([9]; 0.45 kg/hectare) | evaluation scheme, spring barley ([9]; 0.9 kg/hectare) | evaluation, spring wheat ([13]; stage 1, 0.112 kg/hectare) | evaluation, spring wheat ([13]; stage 1, 0.225 kg/hectare) | evaluation, spring wheat ([13]; stage 1, 0.45 kg/hectare) | evaluation, spring wheat ([13]; stage 1, 0.9 kg/hectare) | evaluation, spring wheat ([13]; stage 2, 0.112 kg/hectare) | evaluation, spring wheat ([13]; stage 2, 0.225 kg/hectare) | evaluation, spring wheat ([13]; stage 2, 0.45 kg/hectare) | evaluation, spring wheat ([13]; stage 2, 0.9 kg/hectare) | evaluation scheme, spring wheat ([17]; 0.225 kg/hectare) | evaluation scheme, spring wheat ([17]; 0.45 kg/hectare) | evaluation scheme, spring wheat ([17]; 0.9 kg/hectare)
65.2%: efficiency in % (counting of panicles) ([10]; 0.90 kg/hectare)
6 (75.0 to <85.0): Effect (evaluation scheme), Avena ludoviciana ([6]; 0.9 kg/hectare) | Effect on weed grasses (evaluation scheme), Lolium ([8]; 0.62 kg/hectare) | evaluation 5 weeks after treatment ([10]; 0.90 kg/hectare) | Effect on weed grasses (evaluation scheme), Setaria ([11]; 1.25 kg/hectare) | Effect (evaluation scheme), Avena fatua ([14]; 0.9 kg/hectare) | Effect (evaluation scheme), Alopecurus myos. ([18]; 0.45 kg/hectare)
59.9%: efficiency in % (counting of panicles) ([10]; 0.72 kg/hectare)
2.5 kg per hectare: amount sufficient/required to keep blackgrass satisfactorily under control ([1]; greenhouse)
2 (97.5 to <100): Effect on weed grasses (evaluation scheme number), Echinochloa ([3]; 2.5 kg/hectare) | Effect on wild oat, Avena fatua, number ([4]; 3-leaf stage) | Effect on weed grasses (evaluation scheme number), Setaria ([16]; 0.62 kg/hectare)
50.7%: efficiency in % (counting of panicles) ([10]; 0.54 kg/hectare)
4 (90.0 to <95.0): Effect on weed grasses (evaluation scheme number), Alopecurus ([1]; 2.5 kg/hectare) | Effect on weed grasses (evaluation scheme), Digitaria ([2]; 1.25 kg/hectare) | Effect on weed grasses (evaluation scheme number), Echinochloa ([3]; 0.15 kg/hectare) | Effect on weed grasses (evaluation scheme), Echinochloa ([7]; 0.62 kg/hectare) | Effect on weed grasses (evaluation scheme number), Setaria ([16]; 0.15 kg/hectare) | Effect (evaluation scheme), Alopecurus myos. ([18]; 0.9 kg/hectare)
8 (32.5 to <65.0): Effect on weed grasses (evaluation scheme number), Alopecurus ([1]; 0.15 kg/hectare) | evaluation 5 weeks after treatment ([10]; 0.54 kg/hectare) | Effect on weed grasses (evaluation scheme), Setaria ([11]; 0.62 kg/hectare) | Effect (evaluation scheme), Avena fatua ([14]; 0.225 kg/hectare) | Effect (evaluation scheme), Avena fatua ([14]; 0.45 kg/hectare) | Effect on wild oat (evaluation), Avena fatua ([15]; stage 1, 0.225 kg/hectare) | Effect on wild oat (evaluation), Avena fatua ([15]; stage 2, 0.112 kg/hectare) | Effect (evaluation scheme), Alopecurus myos. ([18]; 0.225 kg/hectare) | Effect on weed grasses (evaluation scheme number), Digitaria ([19]; 0.15 kg/hectare)
little: response of annual black-grass (Alopecurus) ([18]; in words)
